Experimental data from PubChem BioAssay AID226 (DTP/NCI, 2004).
Values joined by “and” are separate entries in the source; they are usually repeats but may differ in a detail not shown here. Equal entries are not always repeated. Inconclusive results and toxic doses are left out.

Test system: B6C3F1 mice, intracerebral ependymoblastoma, median survival T/C
Assay: NCI In Vivo Anticancer Drug Screen. Data for tumor model Ependymoblastoma (intracerebral) in B6C3F1 mice
Conditions: endpoint: median survival time, higher = longer survival
Protocol: The antitumor activity of compounds was measured in mice bearing transplantable tumors. Survival or tumor size were measured and the results are expressed as the measurement made in the treated group (T) divided by the measurement made in the vehicle treated control group (C). The tumor model used in this assay is Ependymoblastoma (intracerebral) in B6C3F1 mice

Compound: O=NN(CCCl)C(=O)NC1CCC(=O)NC1=O (stereo not drawn)
- T/C (dose: 0.5 mg/kg/injection, schedule: Q01DX005 (ip), vehicle: Klucel (hydroxypropylcellulose) (HPC)): 91 % of control
- T/C (dose: 0.5 mg/kg/injection, schedule: Q01DX005 (ip), vehicle: saline with Tween-80): 109 % of control
- T/C (dose: 1.0 mg/kg/injection, schedule: Q01DX005 (ip), vehicle: Klucel (hydroxypropylcellulose) (HPC)): 114 % of control
- T/C (dose: 1.0 mg/kg/injection, schedule: Q01DX005 (ip), vehicle: suspension in saline): 124 % of control
- T/C (dose: 1.0 mg/kg/injection, schedule: Q01DX009 (ip), vehicle: saline with Tween-80): 241 % of control
- T/C (dose: 2.0 mg/kg/injection, schedule: Q01DX005 (ip), vehicle: saline with Tween-80): 238 % of control
- T/C (dose: 2.0 mg/kg/injection, schedule: Q01DX009 (ip), vehicle: saline with Tween-80): 241 % of control
- T/C (dose: 2.59 mg/kg/injection, schedule: Q01DX005 (ip), vehicle: Klucel (hydroxypropylcellulose) (HPC)): 309 % of control
- T/C (dose: 4.0 mg/kg/injection, schedule: Q01DX001 (ip), vehicle: saline + alcohol): 154 % of control
- T/C (dose: 4.0 mg/kg/injection, schedule: Q01DX005 (ip), vehicle: Klucel (hydroxypropylcellulose) (HPC)): 207 % of control
- T/C (dose: 4.0 mg/kg/injection, schedule: Q01DX005 (ip), vehicle: saline with Tween-80): 396 % of control
- T/C (dose: 4.0 mg/kg/injection, schedule: Q01DX005 (ip), vehicle: suspension in saline): 179 % of control and 236 % of control and 260 % of control
- T/C (dose: 4.32 mg/kg/injection, schedule: Q01DX005 (ip), vehicle: Klucel (hydroxypropylcellulose) (HPC)): 357 % of control
- T/C (dose: 5.0 mg/kg/injection, schedule: Q01DX001 (ip), vehicle: DMSO): 112 % of control
- T/C (dose: 6.0 mg/kg/injection, schedule: Q01DX005 (ip), vehicle: suspension in saline): 262 % of control and 267 % of control
- T/C (dose: 7.2 mg/kg/injection, schedule: Q01DX001 (ip), vehicle: Klucel (hydroxypropylcellulose) (HPC)): 187 % of control
- T/C (dose: 7.2 mg/kg/injection, schedule: Q01DX005 (ip), vehicle: Klucel (hydroxypropylcellulose) (HPC)): 357 % of control
- T/C (dose: 8.0 mg/kg/injection, schedule: Q01DX001 (ip), vehicle: saline + alcohol): 229 % of control
- T/C (dose: 8.0 mg/kg/injection, schedule: Q01DX005 (ip), vehicle: Klucel (hydroxypropylcellulose) (HPC)): 274 % of control
- T/C (dose: 8.0 mg/kg/injection, schedule: Q01DX005 (ip), vehicle: saline with Tween-80): 172 % of control
- T/C (dose: 8.0 mg/kg/injection, schedule: Q01DX005 (ip), vehicle: suspension in saline): 205 % of control
- T/C (dose: 8.3 mg/kg/injection, schedule: Q01DX001 (ip), vehicle: DMSO): 226 % of control
- T/C (dose: 10.0 mg/kg/injection, schedule: Q07DX003 (ip), vehicle: saline): 175 % of control
- T/C (dose: 10.0 mg/kg/injection, schedule: Q07DX003 (ip), vehicle: suspension in saline): 252 % of control
- T/C (dose: 12.0 mg/kg/injection, schedule: Q01DX001 (ip), vehicle: Klucel (hydroxypropylcellulose) (HPC)): 363 % of control
- T/C (dose: 12.0 mg/kg/injection, schedule: Q01DX005 (ip), vehicle: Klucel (hydroxypropylcellulose) (HPC)): 357 % of control
- T/C (dose: 13.8 mg/kg/injection, schedule: Q01DX001 (ip), vehicle: DMSO): 367 % of control
- T/C (dose: 16.0 mg/kg/injection, schedule: Q01DX001 (ip), vehicle: saline + alcohol): 324 % of control
- T/C (dose: 16.0 mg/kg/injection, schedule: Q01DX005 (ip), vehicle: saline with Tween-80): 114 % of control
- T/C (dose: 20.0 mg/kg/injection, schedule: Q01DX001 (ip), vehicle: Klucel (hydroxypropylcellulose) (HPC)): 363 % of control
- T/C (dose: 20.0 mg/kg/injection, schedule: Q07DX003 (ip), vehicle: saline): 99 % of control
- T/C (dose: 20.0 mg/kg/injection, schedule: Q07DX003 (ip), vehicle: suspension in saline): 252 % of control
- T/C (dose: 23.0 mg/kg/injection, schedule: Q01DX001 (ip), vehicle: DMSO): 367 % of control
- T/C (dose: 32.0 mg/kg/injection, schedule: Q01DX001 (ip), vehicle: saline + alcohol): 324 % of control
- T/C (dose: 32.0 mg/kg/injection, schedule: Q01DX001 (ip), vehicle: suspension in saline): 120 % of control
- T/C (dose: 33.3 mg/kg/injection, schedule: Q01DX001 (ip), vehicle: Klucel (hydroxypropylcellulose) (HPC)): 90 % of control
- T/C (dose: 38.4 mg/kg/injection, schedule: Q01DX001 (ip), vehicle: DMSO): 366 % of control

Compound: CC(=O)NNC(=O)c1ccccn1
- T/C (dose: 100.0 mg/kg/injection, schedule: Q01DX005 (ip), vehicle: Klucel (hydroxypropylcellulose) (HPC)): 101 % of control and 110 % of control
- T/C (dose: 200.0 mg/kg/injection, schedule: Q01DX005 (ip), vehicle: Klucel (hydroxypropylcellulose) (HPC)): 92 % of control and 90 % of control
- T/C (dose: 400.0 mg/kg/injection, schedule: Q01DX005 (ip), vehicle: Klucel (hydroxypropylcellulose) (HPC)): 95 % of control and 103 % of control

Compound: O=C(O)C1(C(=O)O)CCC1.[NH2-].[NH2-].[Pt+2]
- T/C (dose: 16.0 mg/kg/injection, schedule: Q01DX005 (ip), vehicle: dextrose): 110 % of control and 118 % of control
- T/C (dose: 32.0 mg/kg/injection, schedule: Q01DX005 (ip), vehicle: dextrose): 119 % of control and 120 % of control

Compound: c1cc2n(n1)CCN2
- T/C (dose: 32.0 mg/kg/injection, schedule: Q01DX005 (ip), vehicle: water): 93 % of control and 88 % of control
- T/C (dose: 32.0 mg/kg/injection, schedule: Q#A X006 (ip), vehicle: water): 100 % of control
- T/C (dose: 64.0 mg/kg/injection, schedule: Q01DX001 (ip), vehicle: water): 93 % of control and 94 % of control
- T/C (dose: 64.0 mg/kg/injection, schedule: Q01DX001 (oral), vehicle: water): 100 % of control and 106 % of control
- T/C (dose: 64.0 mg/kg/injection, schedule: Q01DX005 (ip), vehicle: water): 102 % of control and 104 % of control
- T/C (dose: 64.0 mg/kg/injection, schedule: Q01DX005 (oral), vehicle: water): 98 % of control
- T/C (dose: 64.0 mg/kg/injection, schedule: Q#A X002 (ip), vehicle: water): 98 % of control
- T/C (dose: 64.0 mg/kg/injection, schedule: Q#A X004 (ip), vehicle: water): 94 % of control
- T/C (dose: 64.0 mg/kg/injection, schedule: Q#A X006 (ip), vehicle: water): 102 % of control
- T/C (dose: 128.0 mg/kg/injection, schedule: Q01DX001 (ip), vehicle: water): 92 % of control and 93 % of control
- T/C (dose: 128.0 mg/kg/injection, schedule: Q01DX001 (oral), vehicle: water): 103 % of control and 108 % of control
- T/C (dose: 128.0 mg/kg/injection, schedule: Q01DX005 (ip), vehicle: water): 91 % of control and 113 % of control
- T/C (dose: 128.0 mg/kg/injection, schedule: Q01DX005 (oral), vehicle: water): 104 % of control
- T/C (dose: 128.0 mg/kg/injection, schedule: Q#A X002 (ip), vehicle: water): 100 % of control
- T/C (dose: 128.0 mg/kg/injection, schedule: Q#A X004 (ip), vehicle: water): 109 % of control
- T/C (dose: 128.0 mg/kg/injection, schedule: Q#A X006 (ip), vehicle: water): 102 % of control
- T/C (dose: 256.0 mg/kg/injection, schedule: Q01DX001 (ip), vehicle: water): 92 % of control and 100 % of control
- T/C (dose: 256.0 mg/kg/injection, schedule: Q01DX001 (oral), vehicle: water): 98 % of control and 100 % of control
- T/C (dose: 256.0 mg/kg/injection, schedule: Q01DX005 (ip), vehicle: water): 106 % of control
- T/C (dose: 256.0 mg/kg/injection, schedule: Q01DX005 (oral), vehicle: water): 116 % of control
- T/C (dose: 256.0 mg/kg/injection, schedule: Q#A X002 (ip), vehicle: water): 98 % of control
- T/C (dose: 256.0 mg/kg/injection, schedule: Q#A X006 (ip), vehicle: water): 115 % of control
- T/C (dose: 512.0 mg/kg/injection, schedule: Q01DX001 (ip), vehicle: water): 106 % of control and 122 % of control
- T/C (dose: 512.0 mg/kg/injection, schedule: Q01DX001 (oral), vehicle: water): 103 % of control and 121 % of control
- T/C (dose: 1024.0 mg/kg/injection, schedule: Q01DX001 (ip), vehicle: water): 109 % of control

Compound: CCOC(OCC)C(=O)OCC(=O)[C@]1(O)Cc2c(O)c3c(c(O)c2[C@@H](OC2CC(N)C(O)C(C)O2)C1)C(=O)c1c(OC)cccc1C3=O (stereo partly drawn)
- T/C (dose: 0.12 mg/kg/injection, schedule: Q01DX005 (ip), vehicle: water): 103 % of control
- T/C (dose: 0.25 mg/kg/injection, schedule: Q01DX005 (ip), vehicle: water): 102 % of control and 113 % of control
- T/C (dose: 0.5 mg/kg/injection, schedule: Q01DX005 (ip), vehicle: water): 101 % of control and 105 % of control
- T/C (dose: 1.0 mg/kg/injection, schedule: Q01DX005 (ip), vehicle: water): 98 % of control and 109 % of control
- T/C (dose: 2.0 mg/kg/injection, schedule: Q01DX005 (ip), vehicle: water): 101 % of control and 103 % of control
- T/C (dose: 4.0 mg/kg/injection, schedule: Q01DX005 (ip), vehicle: water): 109 % of control
